# Assay results from US8796457B2, “Compound useful for the treatment of degenerative and inflammatory diseases” (Galapagos NV, priority 2009, dated 2014).
# Where two headings read alike, the source gives them in different places.
# Tests used:
# [1] = target: JAK3 (Homo sapiens (Human), UniProt P52333); assay: JAK3 Ki determination assay; type: biochemical; conditions: Lineweaver-Burk; polyGT substrate, 33P readout
# Excerpt: For the determination of Ki, different amounts of inhibitor were mixed with the enzyme and the enzymatic reaction was followed as a function of ATP concentration.
# [2] = Microsomal stability, rat; type: in vitro ADME; conditions: rat liver microsomes, 3 μM compound, 37° C.
# Protocol: A 10 mM stock solution of compound in DMSO was diluted 1000 fold in a 182 mM phosphate buffer pH7.4 in a 96 deep well plate (Greiner, Cat no. 780285) and pre-incubated at 37° C.
# 40 μL of deionised water was added to a well of a polypropylene Matrix 2D barcode labelled storage tube (Thermo Scientific) and pre-incubated at 37° C.
# A Glucose-6-phophate-dehydrogenase (G6PDH) working stock solution was prepared in 182 mM phosphate buffer pH7.4 and placed on ice before use. A co-factor containing MgCl2, glucose-6-phosphate and NADP+ was prepared in deionised water and placed on ice before use. […]
# These plates were sealed with sealing mats (MA96RD-04S) of www.kinesis.co.uk and samples were measured at room temperature on LCMS (ZQ 1525 from Waters) under optimized conditions using Quanoptimize to determine the appropriate mass of the parent molecule.
# The samples were analyzed on LCMS with a flow rate of 1 mL/min. […]
# Peak area from the parent compound at time 0 was considered to be 100% remaining. The percentage remaining after 1 hour incubation was calculated from time 0 and was calculated as the percentage remaining. […]
# The data on microsomal stability are expressed as a percentage of the total amount of compound remaining after 60 minutes.
# [3] = target: Recombinant human JAK1 (catalytic domain) (Homo sapiens (Human), UniProt P23458); assay: JAK1 inhibition assay; type: biochemical; conditions: average ± standard error of the mean; 7 μM ATP
# Sequence of Recombinant human JAK1 (catalytic domain) (P23458 866-1154): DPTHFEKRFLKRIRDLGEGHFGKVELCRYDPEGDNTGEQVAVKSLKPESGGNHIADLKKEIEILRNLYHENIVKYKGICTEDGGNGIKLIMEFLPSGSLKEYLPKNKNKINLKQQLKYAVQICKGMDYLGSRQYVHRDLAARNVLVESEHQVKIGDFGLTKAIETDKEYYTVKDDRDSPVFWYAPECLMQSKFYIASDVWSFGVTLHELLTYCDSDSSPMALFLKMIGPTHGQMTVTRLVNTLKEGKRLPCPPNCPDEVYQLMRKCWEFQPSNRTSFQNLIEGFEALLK
# Protocol: After 60 min at room temperature, reactions were stopped by adding 20 μL/well of detection mixture (1× detection buffer (Perkin Elmer, catalog number CR97-100C), 0.5 nM Europium-anti-phosphotyrosine (PT66) (Perkin Elmer, catalog number AD0068), 10 mM EDTA). […] Kinase activity was calculated by subtracting relative fluorescence units (RFU) obtained in the presence of a positive control inhibitor (10 μM staurosporine) from RFU obtained in the presence of vehicle.
# Dose dilution series were prepared for the compounds enabling the testing of dose-response effects in the JAK1 assay and the calculation of the IC50 for the compound. […] The data are expressed as the average IC50 from the assays±standard error of the mean.
# [4] = target: JAK2 (Homo sapiens (Human), UniProt O60674); assay: JAK2 Ki determination assay (Ulight-JAK-1 peptide); type: biochemical; conditions: Lineweaver-Burk; Ulight-JAK-1 (Tyr1023) peptide, alternative protocol
# Sequence of JAK2 (O60674 849-1124): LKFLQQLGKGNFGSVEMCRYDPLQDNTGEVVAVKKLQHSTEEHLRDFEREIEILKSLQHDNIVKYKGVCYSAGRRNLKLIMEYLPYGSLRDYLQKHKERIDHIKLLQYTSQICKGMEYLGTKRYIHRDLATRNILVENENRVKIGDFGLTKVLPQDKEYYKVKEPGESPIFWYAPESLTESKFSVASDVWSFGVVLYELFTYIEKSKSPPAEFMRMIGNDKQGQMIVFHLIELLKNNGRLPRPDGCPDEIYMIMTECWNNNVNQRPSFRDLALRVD
# Protocol: Alternatively, for the determination of Ki, different amounts of inhibitor were mixed with the enzyme and the enzymatic reaction was followed as a function of ATP concentration. […] 0.0125 mU of JAK2 (Invitrogen, PV4210) was used in the assay. The substrate was 50 nM Ulight-JAK-1 (Tyr1023) Peptide (Perkin Elmer, TRF0121). The reaction was performed in 25 mM HEPES pH 7.0, 0.01% Triton X-100, 2 mM DTT, 7.5 mM MgCl2 with varying concentrations of ATP and compound. Phosphorylated substrate was measured using an Eu-labeled anti-phosphotyrosine antibody PT66 (Perkin Elmer, AD0068). Readout was performed on the envision (Perkin Elmer) with excitation at 320 nm and emission followed at 615 nm and 665 nm.
# [5] = test system: JAK2 dependent pathway (GM-CSF induced IL-8) in human whole blood; assay: Whole blood assay, GM-CSF stimulation, IL-8 ELISA; type: cell-based; conditions: 6 blood donors, ± SEM, read-out: pIC50 for inhibition of GM-CSF induced increase of IL-8 (converted)
# Protocol: For GM-CSF stimulation, increase in interleukin-8 (IL-8) levels in plasma was measured using an IL-8 ELISA assay. Granulocyte macrophage-colony stimulating factor (GM-CSF)—induced interleukin 8 (IL-8) expression is a JAK2-mediated event.
# The increase in IL-8 levels in plasma was measured using an IL-8 ELISA assay.
# 10 μg GM-CSF was dissolved in 100 μL H2O to obtain a 100 μg/mL stock solution. The stock solution was stored at −20° C.
# A 3-fold dilution series of the test compound was prepared in DMSO (highest concentration: 10 mM).
# Human blood was collected in heparinized tubes. The blood was divided in aliquots of 245 μL. […] The GM-CSF stock solution was diluted 100-fold in RPMI medium to obtain a 1 μg/mL work solution. […] The samples were incubated at 37° C. for 2 h.
# The samples were centrifuged for 15 min at 1,000 g, 4° C. 100 μL of the plasma was harvested and stored at −80° C. until further use.
# The Human IL-8 Chemiluminescent Immunoassay kit from R&D Systems (Cat. n°: Q8000B) was used to determine IL-8 levels.
# Wash buffer was prepared by diluting 10× wash buffer in H2O. Working glo reagent was prepared by adding 1 part Glo Reagent 1 to 2 parts Glo Reagent B 15 min to 4 h before use.
# 100 μL assay diluent RD1-86 was added to each well. After that, 50 μL of sample (plasma) was added. […] Luminescence was measured (0.5 s/well read time).
# Sequence of JAK3 (P52333 whole entry): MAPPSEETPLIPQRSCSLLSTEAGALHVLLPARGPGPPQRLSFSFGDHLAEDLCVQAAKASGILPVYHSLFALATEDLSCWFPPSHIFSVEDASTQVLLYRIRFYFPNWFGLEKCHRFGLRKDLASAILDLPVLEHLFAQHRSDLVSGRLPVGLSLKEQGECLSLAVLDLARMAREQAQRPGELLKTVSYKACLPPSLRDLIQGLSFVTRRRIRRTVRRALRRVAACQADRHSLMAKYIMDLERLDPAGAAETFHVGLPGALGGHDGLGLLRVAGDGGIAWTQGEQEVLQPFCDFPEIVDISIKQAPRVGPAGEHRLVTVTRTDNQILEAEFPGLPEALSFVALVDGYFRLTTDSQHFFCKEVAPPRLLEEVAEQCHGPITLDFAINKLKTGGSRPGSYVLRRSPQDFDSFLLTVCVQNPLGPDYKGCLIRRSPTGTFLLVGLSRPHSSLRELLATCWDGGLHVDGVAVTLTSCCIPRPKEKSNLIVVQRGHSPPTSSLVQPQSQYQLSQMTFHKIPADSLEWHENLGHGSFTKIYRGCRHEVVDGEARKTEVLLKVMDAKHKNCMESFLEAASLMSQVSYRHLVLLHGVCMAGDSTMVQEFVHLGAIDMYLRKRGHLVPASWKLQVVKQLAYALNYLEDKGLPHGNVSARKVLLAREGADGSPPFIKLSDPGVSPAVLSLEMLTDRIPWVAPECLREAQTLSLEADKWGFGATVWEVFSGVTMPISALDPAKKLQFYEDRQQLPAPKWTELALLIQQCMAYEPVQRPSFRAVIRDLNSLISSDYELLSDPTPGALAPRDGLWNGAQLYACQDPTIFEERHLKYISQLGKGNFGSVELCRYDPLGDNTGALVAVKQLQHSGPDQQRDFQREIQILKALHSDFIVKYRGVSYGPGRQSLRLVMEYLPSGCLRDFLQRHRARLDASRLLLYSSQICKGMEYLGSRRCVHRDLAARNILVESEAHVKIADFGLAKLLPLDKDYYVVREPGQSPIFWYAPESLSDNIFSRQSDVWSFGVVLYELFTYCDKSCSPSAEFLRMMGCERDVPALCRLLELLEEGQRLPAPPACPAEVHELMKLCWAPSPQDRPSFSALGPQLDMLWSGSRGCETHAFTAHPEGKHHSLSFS
smiles,measurement,setting,value
"CC1(C)CN(C(=O)c2ccc(-c3cccc4nc(NC(=O)C5CC5)nn34)cc2)C1 [Compound 1, Cyclopropanecarboxylic acid{5-[4-(3,3-dimethyl-azetidine-1-carbonyl)-phenyl]-[1,2,4]triazolo[1,5-a]pyridin-2-yl}-amide]",Ki,[1],188 nM
same,"Microsomal stability, percentage of compound remaining after 60 minutes, Rat",[2],76-100%
same,IC50,[3],6.6 ± 0.7 nM
same,Ki,[4],35 nM
same,IC50,"[5]; additional data analysis protocol (R2 > 0.8, hill slope < 3)",10700 nM
same,IC50,[5]; human whole blood,13500 nM
